According to patent US20260248763A1 (BIO GENUINE (SHANGHAI) BIOTECH CO., LTD, priority 2023, published 2026):
pIC50: −log10 of the molar value.

Assays:
OTR = target: T1, OTR (Homo sapiens, UniProt P30559); experiment: Ca2+ mobilization in cells stably expressing OTR (FLIPR, antagonist mode); assay type: cell-based; details: OTR/HEK293 stably transfected cell line
T1 construct: expressed in transfected cells; host or cells: OTR/HEK293 stably transfected cell line
T1 sequence (P30559 1-389): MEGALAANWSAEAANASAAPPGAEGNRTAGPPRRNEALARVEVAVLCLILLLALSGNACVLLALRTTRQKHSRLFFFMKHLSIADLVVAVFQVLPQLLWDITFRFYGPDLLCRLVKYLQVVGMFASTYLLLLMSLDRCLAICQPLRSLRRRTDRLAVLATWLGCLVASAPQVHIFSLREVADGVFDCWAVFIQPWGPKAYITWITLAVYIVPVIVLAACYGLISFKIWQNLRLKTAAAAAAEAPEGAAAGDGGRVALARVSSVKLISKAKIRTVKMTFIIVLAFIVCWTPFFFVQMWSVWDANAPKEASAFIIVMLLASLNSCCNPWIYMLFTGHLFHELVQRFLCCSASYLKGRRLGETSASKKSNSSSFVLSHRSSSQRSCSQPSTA
In short: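 OTR/HEK293 stable cells (20,000 per well) were loaded with Fluo-4 Direct plus probenecid. Cells were pre-exposed to 10-point, 3-fold compound dilutions before agonist challenge at EC80, determined beforehand per cell line. FLIPR calcium fluorescence (Max-Min) was fitted in Prism.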

V1aR = target: T2, V1aR (Homo sapiens, UniProt P37288); experiment: Ca2+ mobilization in cells stably expressing V1aR (FLIPR, antagonist mode); assay type: cell-based; details: V1a-CHO stably transfected cell line
T2 construct: expressed in transfected cells; host or cells: V1a-CHO stably transfected cell line
Excerpt: Test Example 2. Determination of the Effect of the Compound of the Present Disclosure on Ca^2+ Mobilization in Cells Stably Expressing V1aR
To measure the antagonistic effect of the compound of the present disclosure on V1aR activity expressed in the V1a-CHO stably transfected cell line.
• F-12 (Hyclone, SH30026.01) • FLIPR CALCIUM 6 ASSAY KIT (Molecul Device, R8191) • Fetal Bovine Serum (FBS) (AusGeneX, FBS500-S) • Hygromycin B (Solarbio, H8080-1g) • DMSO (Sigma, D4540) • HBSS (Gibco 14025-092) • Probenecid (MCE, HY—B0545) • 0.36 mL 96 Round V-bottom Deep Well Plates for Laboratory (Biaosen P-0.36-BSA-96) • 384-well conical bottom polypropylene plate (Nunc, 264573) • Corning® 384-well Flat Clear Bottom Black Polystyrene TC-treated Microplates (Corning 3764)
• Biological safety cabinet (ECSO, AC2-6S1-TC) • Carbon dioxide cell incubator (ECSO, CCI-170B-8) • Inverted microscope (Olympus, CKX53) • Microplate low-speed centrifuge (Xiangzhi, TD5B) • FLIPR® Penta (Molecul Device, 5.0)
• 1. Cell plating: V1a-CHO cells were digested and harvested, resuspended and counted, and then inoculated into a 384-well cell plate at a density of: 1.2×10^4 cells/25 μL/well. The cell plate was then incubated in an incubator at 37° C. with 5% CO2 for about 16-20 h. • 2. The next day: after preparing Assay Buffer, 20× Component A was thawed to room temperature, diluted with Assay buffer to 1× loading buffer, and placed at room temperature for later use. • 3. The medium was removed from the cell plate, and 40 μL of 1× loading buffer was quickly added to each well. After centrifugation, the cell plate was incubated at 37° C. in the dark for 120 minutes. • 4. The serially diluted positive compound, serially diluted test compound, and agonist working solution were formulated. After mixing the serially diluted positive compound/serially diluted test compound with the agonist at a 1:1 ratio, 20 μL per well was transferred to a 384-well compound source plate. • 5. The cell plate, agonist source plate, and pipette tips were placed into their respective positions in the FLIPR instrument. Using FLIPR Tetra, 10 μL of the diluted agonist from Step 4 was added to each test well, and the data were collected at a wavelength of 515 nm-575 nm. • 6. The signal values were plotted against the compound concentrations, and the curve fitting and IC50 calculation were performed using the nonlinear regression method of GraphPad Prism software.

T2 sequence (P37288 whole entry, species assumed): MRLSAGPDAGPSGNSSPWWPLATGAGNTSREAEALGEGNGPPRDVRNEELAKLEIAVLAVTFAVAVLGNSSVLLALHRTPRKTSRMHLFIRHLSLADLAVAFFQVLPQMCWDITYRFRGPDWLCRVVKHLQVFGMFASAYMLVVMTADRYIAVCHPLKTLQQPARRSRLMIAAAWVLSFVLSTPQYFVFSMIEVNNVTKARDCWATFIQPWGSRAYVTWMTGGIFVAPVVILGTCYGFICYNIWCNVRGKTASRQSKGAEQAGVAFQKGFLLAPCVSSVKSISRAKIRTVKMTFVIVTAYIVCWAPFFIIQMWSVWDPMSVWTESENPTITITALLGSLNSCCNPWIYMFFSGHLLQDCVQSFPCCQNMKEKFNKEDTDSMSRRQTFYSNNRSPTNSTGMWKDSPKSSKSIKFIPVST

| Structure (SMILES) | pIC50 (OTR) | pIC50 (V1aR) |
| --- | --- | --- |
| CO/N=C1/C[C@@H](CO)N(C(=O)c2ccc(-c3cccc(C#N)c3C)cc2C)C1 [Example A0241, 3-(4-[(2S,4Z)-2-(Hydroxymethyl)-4-(methoxyimino)pyrrolidine-1-carbonyl]-3-methylphenyl)-2-methylbenzonitrile] | 7.69 | 5.21 |
| CO/N=C1/C[C@@H](CO)N(C(=O)c2ccc(-c3cccc(C#N)c3C)c(OC)c2)C1 [Example A0242, (S,Z)-4′-(2-(Hydroxymethyl)-4-(methoxyimino)pyrrolidine-1-carbonyl)-2′-methoxy-2-methyl-[1,1′-biphenyl]-3-carbonitrile] | 7.97 | 5.81 |
| CO/N=C1/C[C@@H](CO)N(C(=O)c2ccc(-c3cccc(C#N)c3C)cc2OC)C1 [Example A0243] | 7.47 | 5.13 |
| CO/N=C1/C[C@@H](CO)N(C(=O)c2ccc(-c3cccc(C#N)c3C)c(Cl)c2)C1 [Example A0246, 3-(2-Chloro-4-[(2S,4Z)-2-(hydroxymethyl)-4-(methoxyimino)pyrrolidine-1-carbonyl]phenyl)-2-methylbenzonitrile] | 7.62 | 5.73 |
| CO/N=C1\CN(C(=O)c2ccc(-c3ccccc3C)cc2)[C@](C)(CO)C1 [Example C0021, (S, Z)-(2-(Hydroxymethyl)-4-(methoxyimino)-2-methylpyrrolidin-1-yl)(2′-methyl-[1,1′-biphenyl]-4-yl)methanone] | 7.13 | 6.06 |
| CO/N=C1/C[C@@H](CO)N(C(=O)c2cnc(-c3cccc(Cl)c3C)cn2)C1 [Example C0041, (S, Z)-(5-(3-Chloro-2-methylphenyl)pyrazin-2-yl)(2-(hydroxymethyl)-4-(methoxyimino)pyrrolidin-1-yl)methanone] | 7.31 | 5.76 |
| CO/N=C1/C[C@@H](CO)N(C(=O)c2ccc(-c3ccccc3C)cc2C)C1 [Example C0044, (S, Z)-(2′,3-Dimethyl-[1,1′-biphenyl]-4-yl)(2-(hydroxymethyl)-4-(methoxyimino)pyrrolidin-1-yl)methanone] | 7.11 | 5.26 |
| CO/N=C1/C[C@@H](CO)N(C(=O)c2ccc(-c3ccccc3C)c(C)c2)C1 [Example C0046, (S, Z)-(2′,2-Dimethyl-[1,1′-biphenyl]-4-yl)(2-(hydroxymethyl)-4-(methoxyimino)pyrrolidin-1-yl)methanone] | 7.66 | 5.73 |
| CO/N=C1/C[C@@H](CO)N(C(=O)c2ccc(-c3cccc(C)c3C)c3c2OCO3)C1 [Example C0062, (S, Z)-(7-(2,3-Dimethylphenyl)benzo[d][1,3]dioxol-4-yl)(2-(hydroxymethyl)-4-(methoxyimino)pyrrolidin-1-yl)methanone] | 7.97 | 5.56 |
| CO/N=C1/C[C@@H](CO)N(C(=O)c2ccc(-c3cccc(C)c3C)c(OC)n2)C1 [Example C0073, (S, Z)-(5-(2,3-Dimethylphenyl)-6-methoxypyridin-2-yl)(2-(hydroxymethyl)-4-(methoxyimino)pyrrolidin-1-yl)methanone] | 7.37 | 5.30 |
| CO/N=C1/C[C@@H](CO)N(C(=O)c2ccc(-c3cccc(C)c3C)c3c2CCC3)C1 [Example C0083, (S,Z)-(7-(2,3-Dimethylphenyl)-2,3-dihydro-1H-inden-4-yl)(2-(hydroxymethyl)-4-(methoxyimino)pyrrolidin-1-yl)methanone] | 7.95 | 5.53 |
| CO/N=C1/C[C@@H](CO)N(C(=O)c2ccc(-c3cccc(C(F)F)c3C)c3c2OCO3)C1 [Example C0118, (S, Z)-(7-(3-(Difluoromethyl)-2-methylphenyl)benzo[d][1,3]dioxolan-4-yl)(2-(hydroxymethyl)-4-(methoxyimino)pyrrolidin-1-yl)methanone] | 7.48 | 5.94 |

Continued, values first:

| pIC50 (OTR) | pIC50 (V1aR) | Structure (SMILES) |
| --- | --- | --- |
| 7.09 | 6.18 | CO/N=C1\C[C@@H](CO)N(C(=O)c2ccc(-c3cccc(C)c3C)cc2)C1 [Example C0035, (S,E)-(2′,3′-Dimethyl-[1,1′-biphenyl]-4-yl)(2-(hydroxymethyl)-4-(methoxyimino)pyrrolidin-1-yl)methanone] |
| 7.49 | 6.10 | CO/N=C1/C[C@@H](CO)N(C(=O)c2ccc(-c3cccc(C)c3C)cc2)C1 [Example C0036, (S,Z)-(2′,3′-Dimethyl-[1,1′-biphenyl]-4-yl)(2-(hydroxymethyl)-4-(methoxyimino)pyrrolidin-1-yl)methanone] |
| 7.87 | 5.86 | CO/N=C1/C[C@@H](CO)N(C(=O)c2ccc(-c3cccc(C)c3C)cc2OC)C1 [Example C0038, (S,Z)-(2-(Hydroxymethyl)-4-(methoxyimino)pyrrolidin-1-yl)(3-methoxy-2′,3′-dimethyl-[1,1′-biphenyl]-4-yl)methanone] |
| 7.80 | 5.46 | CO/N=C1/C[C@@H](CO)N(C(=O)c2ccc(-c3cccc(C)c3C)cc2C)C1 [Example C0045, (S, Z)-(2-(Hydroxymethyl)-4-(methoxyimino)pyrrolidin-1-yl)(3-methyl-2′,3′-dimethyl-[1,1′-biphenyl]-4-yl)methanone] |
| 7.95 | 5.62 | CO/N=C1/C[C@@H](CO)N(C(=O)c2ccc(-c3cccc(C)c3C)c(C)c2)C1 [Example C0047, (S, Z)-(2,2′,3′-Trimethyl-[1,1′-biphenyl]-4-yl)(2-(hydroxymethyl)-4-(methoxyimino)pyrrolidin-1-yl)methanone] |
| 7.99 | 5.56 | CO/N=C1/C[C@@H](CO)N(C(=O)c2ccc(-c3cccc(Cl)c3C)cc2)C1 [Example C0056, (S, Z)-(3′-Chloro-2′-methyl-[1,1′-biphenyl]-4-yl)(2-(hydroxymethyl)-4-(methoxyimino)pyrrolidin-1-yl)methanone] |
| 7.75 | 5.49 | CO/N=C1/C[C@@H](CO)N(C(=O)c2ccc(-c3cccc(C(F)(F)F)c3C)cc2)C1 [Example C0060, (S,Z)-(2-(Hydroxymethyl)-4-(methoxyimino)pyrrolidin-1-yl)(2′-methyl-3′-(trifluoromethyl)-[1,1′-biphenyl]-4-yl)methanone] |
| 7.96 | 6.23 | CO/N=C1/C[C@@H](CO)N(C(=O)c2ccc(-c3cccc(C)c3C)c(OC)c2)C1 [Example C0064, (S, Z)-(2-(Hydroxymethyl)-4-(methoxyimino)pyrrolidin-1-yl)(2-methoxy-2′,3′-dimethyl-[1,1′-biphenyl]-4-yl)methanone] |
| 7.14 | 5.67 | CO/N=C1/C[C@@H](CO)N(C(=O)c2ccc(-c3cccc(OC)c3C)cc2)C1 [Example C0066, (S, Z)-(2-(Hydroxymethyl)-4-(methoxyimino)pyrrolidin-1-yl)(3′-methoxy-2′-methyl-[1,1′-biphenyl]-4-yl)methanone] |
| 7.33 | 4.70 | CO/N=C1/C[C@@H](CO)N(C(=O)c2ccc(-c3ccc(C#N)c(C)c3C)cc2)C1 [Example C0075, (S, Z)-4′-(2-(Hydroxymethyl)-4-(methoxyimino)pyrrolidine-1-carbonyl)-2,3-dimethyl-[1,1′-biphenyl]-4-carbonitrile] |
| 7.56 | 6.03 | CO/N=C1/C[C@@H](CO)N(C(=O)c2ccc(-c3cccc(C(F)F)c3C)cc2)C1 [Example C0079, (S, Z)-(3′-(Difluoromethyl)-2′-methyl-[1,1′-biphenyl]-4-yl)(2-(hydroxymethyl)-4-(methoxyimino)pyrrolidin-1-yl)methanone] |
